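In this assay, cells in 96-well plates receive the compound at five concentrations for 48 hours. Endpoints are linearly interpolated between the surrounding concentrations. GI50 is the concentration that inhibits growth by half. TGI: total growth inhibition.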
Tests used:
Test in all cases: NCI tumour cell line growth inhibition, 48 h
[1] = tested on: SK-MEL-28 melanoma
[2] = tested on: OVCAR-5 ovarian
[3] = tested on: HL-60(TB) leukemia
[4] = tested on: HCT-116 colon
[5] = tested on: EKVX NSCLC
[6] = tested on: SR leukemia
[7] = tested on: OVCAR-4 ovarian
[8] = tested on: KM12 colon
[9] = tested on: RXF 393 renal
[10] = tested on: NCI-H460 lung
[11] = tested on: COLO 205 colon
[12] = tested on: U251 CNS
[13] = tested on: NCI-H23 lung
[14] = tested on: MDA-N
[15] = tested on: A549 NSCLC
[16] = tested on: LOX IMVI melanoma
[17] = tested on: HOP-92 NSCLC
[18] = tested on: HCT-15 colon
[19] = tested on: M14 melanoma
[20] = tested on: HS 578T breast
[21] = tested on: K-562 leukemia
[22] = tested on: IGROV1 ovarian
[23] = tested on: HT29 colon
[24] = tested on: DU-145 prostate
[25] = tested on: SW-620 colon
[26] = tested on: NCI/ADR-RES ovarian
[27] = tested on: SNB-75 CNS
[28] = tested on: 786-0 renal
[29] = tested on: A498 renal
[30] = tested on: NCI-H226 lung
[31] = tested on: CAKI-1 renal
[32] = tested on: CCRF-CEM leukemia
[33] = tested on: HCC-2998 colon
[34] = tested on: SF-268 CNS
[35] = tested on: MOLT-4 leukemia
[36] = tested on: OVCAR-8 ovarian
[37] = tested on: SK-MEL-5 melanoma
[38] = tested on: UO-31 renal
[39] = tested on: MDA-MB-435
[40] = tested on: MDA-MB-231 breast
[41] = tested on: UACC-62 melanoma
[42] = tested on: NCI-H522 lung
[43] = tested on: SF-539 CNS
[44] = tested on: SNB-19 CNS
[45] = tested on: UACC-257 melanoma
[46] = tested on: HOP-62 NSCLC
[47] = tested on: SF-295 CNS
[48] = tested on: PC-3 prostate
[49] = tested on: RPMI-8226 leukemia
[50] = tested on: OVCAR-3 ovarian
[51] = tested on: MALME-3M melanoma
[52] = tested on: TK-10 renal
[53] = tested on: ACHN renal
[54] = tested on: SN12C renal
[55] = tested on: T-47D breast
[56] = tested on: SK-MEL-2 melanoma
[57] = tested on: BT-549 breast
[58] = tested on: SK-OV-3 ovarian
[59] = tested on: MCF7 breast

O=c1c2cc([N+](=O)[O-])ccc2[nH]n1Cc1ccccn1
TGI [1]: > 100 µM | TGI [2]: > 100 µM | TGI [3]: > 100 µM | TGI [4]: > 100 µM | TGI [5]: > 100 µM | TGI [6]: > 100 µM | TGI [7]: > 100 µM | TGI [8]: > 100 µM | TGI [9]: > 100 µM | TGI [10]: > 100 µM | TGI [11]: > 100 µM | TGI [12]: > 100 µM | TGI [13]: > 100 µM | TGI [14]: > 100 µM | TGI [15]: > 100 µM | TGI [16]: > 100 µM | TGI [17]: > 100 µM | TGI [18]: > 100 µM | TGI [19]: > 100 µM | TGI [20]: > 100 µM | TGI [21]: > 100 µM | TGI [22]: > 100 µM | TGI [23]: > 100 µM | TGI [24]: > 100 µM | TGI [25]: > 100 µM | TGI [26]: > 100 µM | TGI [27]: > 100 µM | TGI [28]: > 100 µM | TGI [29]: > 100 µM | TGI [30]: > 100 µM | TGI [31]: > 100 µM | TGI [32]: > 100 µM | TGI [33]: > 100 µM | TGI [34]: > 100 µM | TGI [35]: > 100 µM | TGI [36]: > 100 µM | TGI [37]: > 100 µM | TGI [38]: > 100 µM | TGI [39]: > 100 µM | TGI [40]: > 100 µM | TGI [41]: > 100 µM | TGI [42]: > 100 µM | TGI [43]: > 100 µM | TGI [44]: > 100 µM | TGI [45]: > 100 µM | TGI [46]: > 100 µM | TGI [47]: > 100 µM | TGI [48]: > 100 µM | TGI [49]: > 100 µM | TGI [50]: > 100 µM | TGI [51]: > 100 µM | TGI [52]: > 100 µM | TGI [53]: > 100 µM | TGI [54]: > 100 µM

COc1cc(NCCCCCN=C(N)N)c2ncccc2c1
GI50 [1]: 14.6 µM | TGI [1]: 38.6 µM | GI50 [2]: 5.73 µM | TGI [2]: 30 µM | GI50 [3]: 3.46 µM | TGI [3]: 15.2 µM | GI50 [4]: 2.74 µM | TGI [4]: > 63.5 µM | GI50 [5]: 4.79 µM | TGI [5]: > 50.5 µM | GI50 [6]: 6.28 µM | TGI [6]: 40.6 µM | GI50 [7]: 0.043 µM | TGI [7]: 0.953 µM | GI50 [8]: 2.04 µM | TGI [8]: 14.5 µM | GI50 [9]: 24.9 µM | TGI [9]: > 94.7 µM | GI50 [10]: 7.09 µM | TGI [10]: > 57.5 µM | GI50 [11]: 2.92 µM | TGI [11]: 9.3 µM | GI50 [55]: 1.07 µM | TGI [55]: 6.98 µM | GI50 [12]: 3.23 µM | TGI [12]: 25.8 µM | GI50 [13]: 1.74 µM | TGI [13]: 18.9 µM | GI50 [15]: 30 µM | TGI [15]: > 100 µM | GI50 [16]: 8.21 µM | TGI [16]: > 56.1 µM | GI50 [17]: 2.69 µM | TGI [17]: 40.4 µM | GI50 [18]: 43.9 µM | TGI [18]: > 100 µM | GI50 [19]: 17.7 µM | TGI [19]: 54.1 µM | GI50 [20]: 19 µM | TGI [20]: > 65.4 µM | GI50 [56]: 3.31 µM | TGI [56]: 16.1 µM | GI50 [57]: 5.38 µM | TGI [57]: 18.5 µM | GI50 [21]: 5.16 µM | TGI [21]: > 88.2 µM | GI50 [22]: 1.03 µM | TGI [22]: > 36 µM | GI50 [23]: 5.97 µM | TGI [23]: > 80.7 µM | GI50 [24]: 35.1 µM | TGI [24]: > 100 µM | GI50 [25]: 4.97 µM | TGI [25]: > 100 µM | GI50 [26]: > 100 µM | TGI [26]: > 100 µM | GI50 [27]: 3.25 µM | TGI [27]: 16.6 µM | GI50 [28]: 23.8 µM | TGI [28]: > 100 µM | GI50 [29]: 42.5 µM | TGI [29]: > 100 µM | GI50 [30]: 16.8 µM | TGI [30]: > 100 µM | GI50 [31]: > 100 µM | TGI [31]: > 100 µM | GI50 [32]: 5.1 µM | TGI [32]: > 74.3 µM | GI50 [58]: 60 µM | TGI [58]: > 100 µM | GI50 [33]: 3.97 µM | TGI [33]: > 33.9 µM | GI50 [34]: 3.59 µM | TGI [34]: 22.6 µM | GI50 [35]: 4.53 µM | TGI [35]: > 74.4 µM | GI50 [36]: 4.24 µM | TGI [36]: > 71.7 µM | GI50 [37]: 2.31 µM | TGI [37]: 6.86 µM | GI50 [38]: > 100 µM | TGI [38]: > 100 µM | GI50 [39]: 16.7 µM | TGI [39]: 42.3 µM | GI50 [40]: 2.65 µM | TGI [40]: 12.3 µM | GI50 [41]: 7.2 µM | TGI [41]: 24 µM | GI50 [42]: 0.369 µM | TGI [42]: 4.85 µM | GI50 [43]: 4.68 µM | TGI [43]: 19.4 µM | GI50 [44]: 5.62 µM | TGI [44]: 30.3 µM | GI50 [45]: 4.38 µM | TGI [45]: 16.7 µM | GI50 [46]: 10.1 µM | TGI [46]: > 93.4 µM | GI50 [47]: 17.1 µM | TGI [47]: 97.8 µM | GI50 [59]: 0.179 µM | TGI [59]: 1.11 µM | GI50 [48]: 3.47 µM | TGI [48]: > 49.6 µM | GI50 [49]: 5.45 µM | TGI [49]: 33.5 µM | GI50 [50]: 0.468 µM | TGI [50]: 9.03 µM | GI50 [51]: 1.97 µM | TGI [51]: 8.92 µM | GI50 [52]: 3.43 µM | TGI [52]: 17.1 µM | GI50 [53]: 41.5 µM | TGI [53]: > 100 µM | GI50 [54]: 3.57 µM | TGI [54]: 13.7 µM
